According to US20020177621A1, “Antifungal fragrance composition” (priority 2000, published 2002):
Several values for one entry are separate records, joined by “and”; a condition that tells them apart may be missing. Equal entries are not always repeated. Entries after “also recorded” stand apart in the source; their conditions may differ.

Legend:
Assay type in all cases: cell-based
[1] = system: Aspergillus niger IFO 9455 (An-1); assay: Fragrant vapor antifungal activity (impregnated paper disc on cover of inverted agar plate); settings: 72 hours at 27° C.; for IZ: Diameter of growth inhibition zone: 20 μl fragrance (or 40 μl of 50% ethanol solution) on disc, >85 = growth inhibited over entire plate; for Growth: Growth status outside the inhibition zone / SI: Diameter of spore formation inhibition zone: 20 μl fragrance on disc; for Growth: Growth status outside the inhibition zone: compared with control
Method: (§1) Physiological saline containing 0.05% Tween-80 was added to a slant on which the test organism grew well, and a spore suspension was produced at 1×10^6 CFU (Colony Forming Units)/ml in accordance with ordinary methods. Potato dextrose agar (PDA: Nissui Pharmaceutical) was used for the medium. To begin with, 10 ml of sterile PDA was pipetted into a Petri dish and after it solidified, another 6 ml of PDA containing 1% of the above described spore suspension was overlaid and solidified to prepare the test agar plate. For the fragrance sample, if the sample is in the form of liquid at ordinary temperatures, 20 μl of liquid was directly impregnated into a paper disc (Advantech, diameter: 8 mm, thick material), while a 50% by weight ethanol solution was prepared for crystals or powder, and 40 μl of that solution was then impregnated into the paper disc.
(§2) The test agar plate was placed inversely, and the paper disc impregnated with the fragrance sample was placed in the center of the cover of the agar plate, followed by incubating for 72 hours at 27° C. Evaluation was made based on the diameter (mm) of the mold growth inhibition zone. When mold growth was inhibited over the entire surface of the agar plate, the diameter of the growth inhibition zone was reported as >85 mm. At locations where mold grew outside the inhibition zone, the diameter of the spore formation inhibition zone and the degree of growth were recorded by comparing with a control. The molds used in the test are shown in Table 1, wherein these molds consist of mold species that are isolated at high frequencies from rooms and bath rooms.
(§3) The amount of blended fragrance added to the paper discs was 20 μl each, and only the diameter of the inhibition zone (mm) is indicated for the results.

[2] = system: Aureobasidium pullulans IFO 6353 (Ap-1); assay: as above; settings: 72 hours at 27° C.; for IZ: Diameter of growth inhibition zone: 20 μl fragrance (or 40 μl of 50% ethanol solution) on disc, >85 = growth inhibited over entire plate; for Growth: Growth status outside the inhibition zone / SI: Diameter of spore formation inhibition zone: 20 μl fragrance on disc; for Growth: Growth status outside the inhibition zone: compared with control
Method: as §1, §2, §3

[3] = system: Cladosporium cladosporioides IFO 6348 (Cc-1); assay: as above; settings: 72 hours at 27° C.; for IZ: Diameter of growth inhibition zone: 20 μl fragrance (or 40 μl of 50% ethanol solution) on disc, >85 = growth inhibited over entire plate; for Growth: Growth status outside the inhibition zone: 20 μl fragrance on disc, compared with control
Method: as §1, §2, §3

An-1 (Aspergillus niger) = assay: Confirmation of synergistic action of two fragrances (vapor, paper disc); settings: for IZ (diameter of growth inhibition zone) / Growth (growth status outside the inhibition zone) / SI (diameter of spore formation inhibition zone): 72 hours at 27° C.; for IZ (diameter of growth inhibition zone): sample amount on disc: citral 2 μl, benzaldehyde 10 μl, dimethyl tetrahydrobenzaldehyde 20 μl, geraniol 10 μl, octyl aldehyde 20 μl, 9-decen-1-ol 0.5 μl, trans-2-undecenal 3 μl, phenylacetaldehyde 5 μl, A + B = both amounts on one disc; for Growth (growth status outside the inhibition zone): sample amounts as in Table 3 (citral 2 μl, benzaldehyde 10 μl, dimethyl tetrahydrobenzaldehyde 20 μl, geraniol 10 μl, octyl aldehyde 20 μl, 9-decen-1-ol 0.5 μl, trans-2-undecenal 3 μl, phenylacetaldehyde 5 μl; A + B = both); for SI (diameter of spore formation inhibition zone): sample amounts as in Table 3 (citral 2 μl, benzaldehyde 10 μl, dimethyl tetrahydrobenzaldehyde 20 μl, geraniol 10 μl, octyl aldehyde 20 μl, trans-2-undecenal 3 μl, phenylacetaldehyde 5 μl; A + B = both); for Synergistic effect: second fragrance that shows synergistic action with the fragrance component / Additive effect: second fragrance that shows additive action with the fragrance component / Antagonistic effect: second fragrance that shows antagonistic action with the fragrance component: value = combination partner; for Synergistic effect: second fragrance that shows synergistic action with the fragrance component: combined IZ 20 mm or more larger than sum of single IZ; for Additive effect: second fragrance that shows additive action with the fragrance component: combined IZ intermediate; for Antagonistic effect: second fragrance that shows antagonistic action with the fragrance component: combined IZ 20 mm or more smaller than sum of single IZ
Method: An agar plate prepared according to the method of Example 1 was used while using An-1 (Aspergillus niger) for the test fungi. […] 10 μl of the ethanol containing the Table 3 prescribed amount of the fragrance was impregnated into a paper disc. The test agar plate was placed inversely, and the paper disc impregnated with each fragrance alone and a paper disc simultaneously impregnated with two types of fragrances were placed in the center of the cover, followed by incubating for 72 hours at 27° C. and measuring the diameters of the resulting growth inhibition zones.
The results obtained as in Example 2 with other combinations are shown in Tables 4 through 7 as combination examples of respective synergistic, additive and antagonistic actions for each fragrant chemical product (a). […] It should be noted that in order to make the table smaller, combinations that have already been listed once are not listed in other columns of the tables.

| Compound | IZ: Diameter of growth inhibition zone [1] [mm] | Growth: Growth status outside the inhibition zone [1] | IZ: Diameter of growth inhibition zone [2] [mm] | Growth: Growth status outside the inhibition zone [2] | IZ: Diameter of growth inhibition zone [3] [mm] | Growth: Growth status outside the inhibition zone [3] | IZ (diameter of growth inhibition zone) (An-1 (Aspergillus niger)) [mm] | Growth (growth status outside the inhibition zone) (An-1 (Aspergillus niger)) | SI (diameter of spore formation inhibition zone) (An-1 (Aspergillus niger)) [mm] | Synergistic effect: second fragrance that shows synergistic action with the fragrance component (An-1 (Aspergillus niger)) | Additive effect: second fragrance that shows additive action with the fragrance component (An-1 (Aspergillus niger)) | SI: Diameter of spore formation inhibition zone [1] [mm] | SI: Diameter of spore formation inhibition zone [2] [mm] | Antagonistic effect: second fragrance that shows antagonistic action with the fragrance component (An-1 (Aspergillus niger)) |
| --- | --- | --- | --- | --- | --- | --- | --- | --- | --- | --- | --- | --- | --- | --- |
| CC1=CC(C)C(C=O)CC1 (stereo not shown) [Dimethyl tetrahydrobenzaldehyde, dimethyl tetrahydrobenzaldehyde] | 0 | weak | >85 | sparse | >85 | sparse | 0 | weak | >85 | Cumin aldehyde; also recorded: Geraniol | Thymol, and 1-Decanol | – | – | – |
| C=CCc1ccc(O)c(OC)c1 [Eugenol] | 40 | good | 40 | good | 70 | weak | – | – | – | – | Thymol | 60 | 60 | Phenylacetaldehyde,; also recorded: Anisaldehyde, |
| CCCCCCCCCCO [Example 1-Decanol, 1-Decanol] | 80 | weak | 40 | slight | 60 | weak | – | – | – | – | Thymol and 1-Nonanal and Methyl salicylate, and Phenylacetaldehyde, and Eugenol | – | – | – |
| C=CCCCCCCCCO [Example 9-Decen-1-ol, 9-Decen-1-ol] | >85 | none | 65 | weak | >85 | none | 0 | weak | – | 1-Decanol | Thymol | – | – | – |
| O=Cc1ccco1 [Furfural] | >85 | none | >85 | none | >85 | none | – | – | – | Citronellal; also recorded: hexenal, Octyl aldehyde,; also recorded: Trans-2-undecenal,; also recorded: Cumin aldehyde,; also recorded: Geraniol; also recorded: Citronellol; also recorded: Thymol | – | – | – | – |
| CC(C)=CCC/C(C)=C/CO [Geraniol] | 45 | good | 30 | good | 70 | weak | 30 | weak | 45 | 1-Nonanal | Thymol, | 65 | 45 | Citronellol,; also recorded: Eugenol |
| CCCCCCCC=O [Octyl aldehyde] | 10 | weak | >85 | none | >85 | none | 10 | weak | 35 | Cumin aldehyde | 1-Decanol and Thymol, and Anisaldehyde, and Geraniol, | >85 | – | Citronellol |
| O=Cc1ccccc1O [Salicylic aldehyde] | >85 | none | >85 | none | >85 | none | – | – | – | Cumin aldehyde and Thymol and 1-Decanol and Citronellol | – | – | – | – |
| CCC/C=C/C=O [Trans-2-hexenal] | >85 | none | >85 | none | >85 | none | – | – | – | – | Citral DMA, and 1-Nonanal, and 9-Decen-1-ol | – | – | – |
| CCCCCCCC/C=C/C=O [Trans-2-undecenal] | >85 | none | >85 | none | >85 | none | 30 | slight | >85 | Citral DMA; also recorded: Citral DEA; also recorded: Cumin aldehyde; also recorded: Geraniol; also recorded: Citronellol | – | – | – | Eugenol |
